Where two headings read alike, the source gives them in different places. Some results are limits rather than exact numbers.

Series [1] deals with Human lymphoma SCC-3 cells. Nature of the series: SCC-3 cell growth inhibition test (MTT method). Particulars: 72-hour culture, read-out: Cell growth inhibitory activity (IC50: μM). The series is classed as cell-based. On the procedure:
Simultaneously with cell inoculation, each test compound diluted to various concentrations with an RPMI medium was added to each well.
In general terms: Tetrazolium dyes change colour on reduction, which living cells bring about.

In a further series the test system is MDA-MB-435S. Nature of the series: MDA-MB-435S cell growth inhibitory activity. Format: cell-based. Particulars: for inhibition at 20 µM: Homo sapiens, read-out: Cell growth inhibitory activity (%). The procedure:
[…] Each well was washed three times with a medium. Then, after addition of 100 μL/well of a medium and 20 μL/well of CellTiter 96 AQueous One Solution Reagent (Promega Corp.), the cells were incubated at 37° C. for 2 hours in the presence of 5% CO2.

In another series the test system is STAT3. In words: STAT3 transcription inhibition test (reporter gene method, oncostatin M stimulation). Format: cell-based. The settings on record: compound at 100 μM, STAT3 reporter HeLa stable cell line, oncostatin M 10 ng/mL, 4 hours; for inhibition at 100 µM: Homo sapiens, read-out: STAT3 transcription inhibitory activity (%). On the procedure:
The inhibition of STAT3 transcription was evaluated by using STAT3 reporter HeLa stable cell line (Panomics Inc., catalog No. RC0003), a cell line for the reporter gene method, and performing the following method according to the appendix included therein.
STAT3 reporter HeLa stable cell line subcultured and maintained in a Dulbecco's modified Eagle's medium (DMEM) containing 10% fetal bovine serum, 100 units/mL penicillin, and 100 μg/mL streptomycin was inoculated at a concentration of 40000 cells/well to a 96-well plate (white) and attached to the plate by overnight incubation at 37° C. under 5% CO2. After addition of each evaluation compound adjusted to various concentrations (adjusted with a DMSO solution), the cells were precultured for 1 hour. Then, oncostatin M for activating STAT3 was added at a final concentration 10 ng/mL, and the cells were further cultured at 37° C. under 5% CO2 for 4 hours. Luciferase activity derived from the cells was determined using Steady-Glo Luciferase Assay System (Promega Corp.), and STAT3 transcriptional activity scores were calculated according to the following formula: STAT3 transcriptional activity score (%)=100×(Lchem−L0)/(LDMSO−L0) Lo: luminescence intensity obtained without stimulation with oncostatin M Lchem: luminescence intensity obtained by the addition of a test sample LDMSO: luminescence intensity obtained by the addition of only a solvent for dissolving a test sample

Series [2] has as its system human lymphoma SCC-3 cells. Nature of the series: Evaluation using human lymphoma-transplanted nude mice. The settings on record: SCC-3 cancer-bearing nude mice; for T/C (%): tumor volume ratio vs control.
Protocol: 1×10^6 human lymphoma SCC-3 cells (containing Matrigel) were subcutaneously transplanted to the flank part of each 6-week-old male nude mouse (BALB/cA-nu/nu, CLEA Japan, Inc.). After the transplantation, the tumor volumes [major axis (mm) and minor axis (mm)] of the SCC-3 cancer-bearing mice were measured using an electronic vernier caliper (CD-10, Mitutoyo Corp.), and tumor volumes [mm^3: (major axis)x(minor axis)^2/2] were calculated. SCC-3 cancer-bearing mice whose tumor volume reached 50 to 300 mm^3 were selected and divided based on the tumor volumes into groups each containing 5 individuals. A test compound was suspended in a 0.5% methylcellulose solution and orally administered at a dose of 0.01 mL/g body weight once a day for 5 days (Day 0 (administration initiation day) to Day 4). To a control group, none was administered. The tumor volumes of the SCC-3 cancer-bearing mice were measured every day from the initiation of test compound administration to evaluate antitumor effect. The antitumor effect was assessed by calculating T/C (%) values according to the following formula:
V: tumor volume on every assay day
V0: tumor volume on the administration initiation day (V/V0 of the test compound group)/(V/V0 of the control group)×100
The mark [3] stands for this setting: 40 mg/kg orally once a day for 5 days.
The mark [4] stands for this setting: 160 mg/kg orally once a day for 5 days.

A word on the IC50: it is the concentration needed to halve the response being measured. On to `O=C(Nc1nnc(-c2ccco2)o1)c1cc(-c2ccccc2)nc2ccccc12` [Ia-1, N-[5-(2-furyl)-1,3,4-oxadiazol-2-yl]-2-phenyl-4-quinolinecarboxamide], for which the IC50 in series [1] (Homo sapiens) was determined as 5.9 µM. For the same molecule, in the series with MDA-MB-435S (72 h), the inhibition at 20 µM worked out at 89%. For the same molecule, the inhibition at 100 µM with STAT3 amounted to 54%. The “The number of deaths” value in series [2] (setting [3]) and in series [2] (setting [4]) was 0/5 throughout. In addition, the “T/C (%)” value in series [2] (setting [3]) came out at 38%; in series [2] (setting [4]) it was 40%.
With `N#Cc1ccc(-c2cc(C(=O)Nc3nnc(-c4ccco4)o3)c3ccccc3n2)cc1` [Ia-17, 2-(4-cyanophenyl)-N-[5-(2-furyl)-1,3,4-oxadiazol-2-yl]-4-quinolinecarboxamide], the IC50 in series [1] (Homo sapiens) came out at 4.6 µM. Moreover, the inhibition at 20 µM with MDA-MB-435S (compound at 20 μM, 72 hours) amounted to 54%. Also, the inhibition at 100 µM with STAT3 is 80%.
On to `O=C(Nc1nnc(-c2ccco2)o1)c1cc(-c2ccc(Cl)s2)nc2ccccc12` [Ia-19, 2-(5-chloro-2-thienyl)-N-[5-(2-furyl)-1,3,4-oxadiazol-2-yl]-4-quinolinecarboxamide], for which the IC50 in series [1] (Homo sapiens) is 2.1 µM. Moreover, the inhibition at 20 µM in the series on MDA-MB-435S (compound at 20 μM, 72 hours) amounted to 98%. Also, in the series on STAT3, the inhibition at 100 µM was determined as 77%.
Turning to `O=C(Nc1nnc(-c2ccco2)o1)c1cc(-c2ccccc2)nc2ccc(Cl)cc12` [Ia-22, 6-chloro-N-[5-(2-furyl)-1,3,4-oxadiazol-2-yl]-2-phenyl-4-quinolinecarboxamide], the IC50 in series [1] (Homo sapiens) was 0.9 µM. Also, the inhibition at 20 µM in the series with MDA-MB-435S (compound at 20 μM, 72 hours) came to 98%. The inhibition at 100 µM in the series on STAT3 was 76%. For the same molecule, in series [2] (setting [3]), the “The number of deaths” value was 0/5 and the “T/C (%)” value turned out to be 56%.
`O=C(Nc1nnc(-c2ccco2)o1)c1cc(-c2ccccc2)nc2cc(Br)ccc12` [Ia-24, 7-bromo-N-[5-(2-furyl)-1,3,4-oxadiazol-2-yl]-2-phenyl-4-quinolinecarboxamide]: the IC50 in series [1] (Homo sapiens) is 1.9 µM. The inhibition at 20 µM in the series with MDA-MB-435S (compound at 20 μM, 72 hours) was found to be 94%. Moreover, in the series on STAT3, the inhibition at 100 µM stood at 72%.
For `Cc1cccc2c(C(=O)Nc3nnc(-c4ccco4)o3)cc(-c3ccccc3)nc12` [Ia-25, N-[5-(2-furyl)-1,3,4-oxadiazol-2-yl]-8-methyl-2-phenyl-4-quinolinecarboxamide], the IC50 in series [1] (Homo sapiens) was 6 µM. Moreover, in the series on STAT3, the inhibition at 100 µM worked out at 77%.
With `Cc1cc(C)c2nc(-c3cccs3)cc(C(=O)Nc3nnc(-c4ccco4)o3)c2c1` [Ia-33, N-[5-(2-furyl)-1,3,4-oxadiazol-2-yl]-6,8-dimethyl-2-(2-thienyl)-4-quinolinecarboxamide], in series [1] (Homo sapiens), the IC50 amounted to 1.3 µM. The inhibition at 20 µM in the series with MDA-MB-435S (compound at 20 μM, 72 hours) turned out to be 79%. Moreover, in the series with STAT3, the inhibition at 100 µM came to 58%.
As for `CCCCOc1cc(C(=O)Nc2nnc(-c3ccco3)o2)c2ccccc2n1` [Ia-35, 2-(1-butoxy)-N-[5-(2-furyl)-1,3,4-oxadiazol-2-yl]-4-quinolinecarboxamide], in series [1] (Homo sapiens), the IC50 is 5.6 µM. For the same molecule, the inhibition at 100 µM with STAT3 is 57%.
Consider `CC(C)(C)OC(=O)c1cccc(-c2cc(C(=O)Nc3nnc(-c4ccco4)o3)c3ccccc3n2)c1` [Ia-44, 2-(3-tert-butoxycarbonylphenyl)-N-[5-(2-furyl)-1,3,4-oxadiazol-2-yl]-4-quinolinecarboxamide], for which, in series [1] (Homo sapiens), the concentration for half-maximal inhibition (IC50) came to 1.8 µM. Moreover, the inhibition at 20 µM in the series on MDA-MB-435S (compound at 20 μM, 72 hours) was determined as 99%. Besides, the inhibition at 100 µM in the series with STAT3 is more than 100%.
For `O=C(Nc1nnc(-c2ccco2)o1)c1cc(-c2ccc(Cl)cc2)nc2ccccc12` [Ia-47, 2-(4-chlorophenyl)-N-[5-(2-furyl)-1,3,4-oxadiazol-2-yl]-4-quinolinecarboxamide], the IC50 in series [1] (Homo sapiens) was 2 µM. Further, in the series with MDA-MB-435S (compound at 20 μM, 72 hours), the inhibition at 20 µM stood at 82%. Further, the inhibition at 100 µM in the series with STAT3 is more than 100%.
In the same order, the values of `O=C(Nc1nnc(-c2ccco2)o1)c1cc(-c2ccc([N+](=O)[O-])cc2)nc2ccccc12` [Ia-52, N-[5-(2-furyl)-1,3,4-oxadiazol-2-yl]-2-(4-nitrophenyl)-4-quinolinecarboxamide] are 2.2 µM, 68% and more than 100%.
On to `CC(C)(C)OC(=O)c1ccc(-c2cc(C(=O)Nc3nnc(-c4ccco4)o3)c3ccccc3n2)cc1` [Ia-53, 2-(4-tert-butoxycarbonylphenyl)-N-[5-(2-furyl)-1,3,4-oxadiazol-2-yl]-4-quinolinecarboxamide], for which the IC50 in series [1] (Homo sapiens) was 0.7 µM. Besides, the inhibition at 20 µM in the series with MDA-MB-435S (compound at 20 μM, 72 hours) is 100%. Further, the inhibition at 100 µM in the series with STAT3 was more than 100%.
For `O=C(Nc1nnc(-c2ccco2)o1)c1cc(-c2cccc3ccccc23)nc2ccccc12` [Ia-60, N-[5-(2-furyl)-1,3,4-oxadiazol-2-yl]-2-(1-naphthyl)-4-quinolinecarboxamide], in that order: 2.1 µM, 100% and more than 100%.
`O=C(Nc1nnc(-c2ccco2)o1)c1cc(/C=C/c2ccccc2)nc2ccccc12` [Ia-65, N-[5-(2-furyl)-1,3,4-oxadiazol-2-yl]-2-trans-styryl-4-quinolinecarboxamide]: the IC50 in series [1] was determined as 2.6 µM. In addition, in the series on MDA-MB-435S (compound at 20 μM, 72 hours), the “Cell growth inhibitory activity (%)” value is given as 69%. Besides, in the series on STAT3, the “STAT3 transcription inhibitory activity (%)” value is more than 100%.
`O=C(Nc1nnc(-c2ccco2)o1)c1cc(-c2ccccc2)nc2ccc(F)cc12` [Ia-67, 6-fluoro-N-[5-(2-furyl)-1,3,4-oxadiazol-2-yl]-2-phenyl-4-quinolinecarboxamide]: in series [1] (Homo sapiens), the half-maximal inhibitory concentration (IC50) amounted to 2.1 µM. The inhibition at 100 µM in the series on STAT3 is 90%.
Turning to `Cc1ccc2nc(-c3ccccc3)cc(C(=O)Nc3nnc(-c4ccco4)o3)c2c1` [Ia-70, N-[5-(2-furyl)-1,3,4-oxadiazol-2-yl]-6-methyl-2-phenyl-4-quinolinecarboxamide], in series [1] (Homo sapiens), the 50% inhibitory concentration (IC50) turned out to be 1.9 µM. Also, in the series with MDA-MB-435S (compound at 20 μM, 72 hours), the inhibition at 20 µM is more than 100%. In addition, in the series on STAT3, the inhibition at 100 µM was more than 100%.
`O=C(Nc1nnc(-c2ccco2)o1)c1cc(-c2ccccc2)nc2ccc(OC(F)(F)F)cc12` [Ia-71, N-[5-(2-furyl)-1,3,4-oxadiazol-2-yl]-2-phenyl-6-trifluoromethoxy-4-quinolinecarboxamide]: in series [1] (Homo sapiens), the IC50 turned out to be 0.3 µM. In addition, the inhibition at 20 µM with MDA-MB-435S (72 h) came out at 85%. The inhibition at 100 µM with STAT3 was more than 100%.
For the molecule `O=C(Nc1nnc(-c2ccco2)o1)c1cc(-c2ccccc2)nc2cc(Cl)ccc12` [Ia-72, 7-chloro-N-[5-(2-furyl)-1,3,4-oxadiazol-2-yl]-2-phenyl-4-quinolinecarboxamide], in series [1] (Homo sapiens), the IC50 was determined as 2.2 µM. In addition, the inhibition at 100 µM in the series with STAT3 is more than 100%.
Consider `O=C(Nc1nnc(-c2ccco2)o1)c1cc(-c2ccccc2)nc2c(Cl)cc(Cl)cc12` [Ia-74, 6,8-dichloro-N-[5-(2-furyl)-1,3,4-oxadiazol-2-yl]-2-phenyl-4-quinolinecarboxamide], for which, in series [1] (Homo sapiens), the IC50 was determined as 0.7 µM. In addition, the inhibition at 20 µM in the series on MDA-MB-435S (compound at 20 μM, 72 hours) is 82%. The inhibition at 100 µM with STAT3 was determined as 97%.
For `Cc1ccc(-c2cc(C(=O)Nc3nnc(-c4ccccc4)o3)c3ccccc3n2)cc1` [Ia-i, N-(5-phenyl-1,3,4-oxadiazol-2-yl)-2-(4-tolyl)-4-quinolinecarboxamide], the IC50 in series [1] (Homo sapiens) was found to be 2.7 µM. The inhibition at 100 µM with STAT3 was found to be 85%.
